Measured values taken from patent publication US4607012A, “Antibiotic SB 22484” (Gruppo Lepetit S.p.A., priority 1983, dated 1986).

Legend:
N. gonorrhoeae L 1599 = test: in vitro antibacterial activity (standard dilution test); assay type: cell-based; details: Neisseria gonorrhoeae, L1599; N. gonorrhoeae L 1599, clinically isolated, penicillinase producing; GC agar base + 1% Iso-Vitalex, CO2 enriched, 18-24 h, 37° C
Protocol: (§1) Iso-Sensitest broth (Oxoid) and Todd-Hewitt broth (Difco) are used for staphylococci and streptococci, respectively, Neisseriae strains are cultured on GC agar base (Difco)+1% Iso-Vitalex (BBL) and Hemophylus is cultured on GC agar base (Difco)+1% Iso-Vitalex (BBL)+1% hemoglobin (Difco). Broth cultures are diluted so that the final inoculum is about 10^4 -10^5 colony forming units/ml (CFU/ml). […] Neisseriae strains are incubated in a CO2 enriched atmosphere.

N. gonorrhoeae L 1596 = test: as above; assay type: cell-based; details: Neisseria gonorrhoeae, L1596; N. gonorrhoeae L 1596, clinically isolated, resistant to spectinomycin; GC agar base + 1% Iso-Vitalex, CO2 enriched, 18-24 h, 37° C
Protocol: as §1

MIC (N. gonorrhoeae L 1596) | SMILES | MIC (N. gonorrhoeae L 1599)
 | CC1(C)S[C@@H]2[C@H](NC(=O)Cc3ccccc3)C(=O)N2[C@H]1C(=O)O [penicillin] | > 50 µg/mL
> 12 µg/mL | CN[C@@H]1[C@H](O)[C@H](NC)[C@H]2O[C@@]3(O)C(=O)C[C@@H](C)O[C@H]3O[C@@H]2[C@H]1O [spectinomycin] | 
